Columns and labels:
[1] = UV-Vis absorption spectra in different solvents; type: physicochemical
Description: Reichardt's dye was used without further purification. […] Solvents used were obtained from Aldrich Chemical and were HPLC grade. A Shimadzu UV-1601 UV-Visible Spectrophotometer (Shimadzu Corporation) was used to measure the longest wavelength peak absorption of the dyes in the range of 400 to 800 nm, dissolved in three different solvents, contained in quartz curvettes. The following table contains the results of the testing with the solvents on the left side and dyes across the top.

[2] = system: bacteria in aged chicken juice; assay: Dye solution dropped onto aged chicken juice on SCOTT paper towel (comparative examples); settings: 100 mg suspended in 10 ml acetonitrile, dropped onto aged chicken juice on SCOTT paper towel
[3] = system: microbes on computer keyboard; assay: Indicator spray on computer keyboard
Method: Reichardt's dye was dissolved in isopropanol (160 mg in 10 mL of isopropanol) and attached to an aerosol-based spray device. The keyboard was then sprayed with the indicator solution (10B).

bacteria solution = assay: Lateral flow device; settings: 5 weight percent dye in iso-propanol striped on nitrocellulose HF75
Method: Millipore nitrocellulose HF75 membrane (from Millipore Corporation of Billerica, Mass., USA) was laminated onto a plastic supporting card (from Millipore Corp.) having a length of approximately 30 centimeters. On both the detection zone and control zone, a solution of 5 weight percent Reichardt's dye in iso-propanol was hand striped. The membrane was dried in a laboratory oven for 1 hour at a temperature of 37.5° C. After the membrane card was taken from the oven, a cellulosic wicking pad (Cat# CFSP203000 from Millipore Corp.) was attached to one end of the membrane closer to the control zone. The other end of the card, used to attach the sample pad, was cut off. The card was then sliced into 4 mm strips to form half sticks.
Once the half sticks were prepared, a bacteria solution was applied to the end of the detection membrane. […] The control line color remained the same through out the test.

S. aureus [4] = assay: Titration of substrate-bound microorganism with Reichardt's dye solution; design: species or system Staphylococcus aureus
Method: On a SCOTT® paper towel was placed 100 μl each of serially diluted S. aureus bacterial suspensions. […] This was repeated on each spot corresponding to where different concentrations of bacteria were placed.

vaccinia = settings: 50-microliter droplet, 3 minutes
[5] = system: bacteria from aged chicken juice; assay: Reichardt's dye indicator spray on surfaces contaminated with aged chicken; settings: for false-positive test: chicken broth versus aged chicken juice: 160 mg in 10 ml isopropanol
S. aureus [6] = assay: De-colorization of Reichardt's dye-coated paper and stickers by bacteria; design: species or system Staphylococcus aureus
Method: (§1) This experiment tested the ability of a surface coating of Reichardt's dye to respond to bacterial contamination. […] To this paper was added 100 μL aliquots of 10^7, 10^6, 10^5, and 10^4 CFU/mL E. coli or S. aureus solutions (8B). Water was used as a negative control. […] It was later determined that while both bacteria solutions were indeed at 10^7 CFU/mL concentrations, the actual concentration of the S. aureus solution was 7×10^7 CFU/mL compared to 1×10^7 CFU/mL for the E. coli solution.
A sheet of paper self-adhesive stickers (Avery-Dennison) was also brush-coated with two different concentrations of Reichardt's dye solution (160 mg/10 mL acetonitrile, 80 mg/10 mL acetonitrile). The stickers were applied to the lid and latch mechanism of a Huggies® Wet Wipes box. A gloved hand was used to transfer 10^7 CFU/mL S. aureus to the surface of the stickers. […] The sticker could provide a means for easy and rapid detection of bacterial contamination for a variety of applications.

Polio virus type 1 = settings: virus diluted serially in media, 50-microliter aliquots, 3 minutes
E. coli [7] = assay: Titration of substrate-bound microorganism with Reichardt's dye solution; design: species or system Escherichia coli; settings: 160 mg in 10 ml acetonitrile, 10 μl aliquots; 100 μl of 10^7 CFU/ml on towel
Rhinovirus = assay: Virus detection with Reichardt's dye
[8] = system: vaginal fluid samples (lactobacillus, BV bacteria); assay: Reichardt's dye-coated stickers with normal and BV-infected vaginal fluid
Method: Considering the high prevalence of vaginal infections of bacterial origin, an experiment was performed to determine the response of Reichardt's dye-coated stickers to healthy (low pH, no bacterial infection), a pH positive/Bacterial Vaginosis (BV) negative (no bacterial infection, but higher than normal pH), and pH positive/BV positive (higher than normal pH and known bacterial infection) vaginal fluid samples. […] A sticker of each concentration was tested with normal, BV positive/pH positive, and BV negative/pH positive vaginal fluid samples.

Bleach indicator test = type: physicochemical; settings: mixture with TMB coated on SCOTT towel
[9] = Effect of acid and strong base on Reichardt's dye de-colorization; type: physicochemical
Description: This was repeated with another area.

E. coli [10] = assay: De-colorization of Reichardt's dye-coated paper by bacteria solutions; design: species or system Escherichia coli; settings: paper brush-coated with 80 mg/10 mL acetonitrile; 100 μL of 10^7 to 10^4 CFU/mL
Method: as §1

E. coli [11] = assay: Towel coated with Reichardt's dye and TMB exposed to bacteria; design: species or system Escherichia coli; settings: E. coli suspension drop-wise
[12] = 160 mg in 10 ml acetonitrile dried on SCOTT towel

[O-]c1c(-c2ccccc2)cc(-[n+]2c(-c3ccccc3)cc(-c3ccccc3)cc2-c2ccccc2)cc1-c1ccccc1 [Reichardt's dye, 2,6-diphenyl-4-(2,4,6-triphenylpyridinio)-phenolate]
perceived color of solution ([1]; Acetone): (bluish-green) | perceived color of solution ([1]; Acetonitrile): (Blue) | perceived color of solution ([1]; Methanol): (red) | color change on aged chicken juice (control) [2]: immediately decolorized | de-colorization of spray on old computer keyboard [3]: rapid de-colorization of the dye in certain areas | color change in detection zone of lateral flow half stick (bacteria solution): a color change was noted in the detection zone | Amount of Dye Required for Persistent Color (S. aureus [4]; 160 mg in 10 ml acetonitrile, 10 μl aliquots, 100 μl of 10^7 CFU/ml on towel): 90 µL | de-colorization time of dye drops (S. aureus [4]; 10 μl drops of 40 mg/10 ml acetonitrile on 100 μl serially diluted suspensions on SCOTT towel): < 1 s | de-colorization of sticker by undiluted virus (vaccinia): less than that observed for the other viruses | color change of indicator spray on area contacted by aged chicken ([5]; 160 mg in 10 mL acetonitrile, sprayed on ceramic plate): decolorized | color change of indicator spray on contaminated doorknob ([5]; 160 mg in 10 mL isopropanol, plastic doorknob marked with aged chicken juice): de-colorization of the Reichardt's dye from blue to colorless | false-positive test: chicken broth versus aged chicken juice ([5]; ceramic surface): only the side containing the aged chicken juice (and thus bacteria) was de-colorized | false-positive test: chicken broth versus aged chicken juice ([5]; hot plate surface): only the side containing the aged chicken juice (and thus bacteria) was de-colorized | de-colorization after cleaning guided by the spray ([5]; isopropanol spray, ceramic surface cleaned again with 60% ethanol antiseptic): no de-colorization took place | de-colorization time (S. aureus [6]; paper brush-coated with 80 mg/10 mL acetonitrile, 100 μL of 10^7 to 10^4 CFU/mL): < 1 min | de-colorization of coated stickers (S. aureus [6]; stickers coated with 160 or 80 mg/10 mL acetonitrile, 10^7 CFU/mL transferred by gloved hand): rapidly de-colorized | lowest ten-fold dilution at which stickers changed color (Polio virus type 1): 10^−6 | Amount of Dye Required for Persistent Color (E. coli [7]): 80 µL | dye added until the color persisted (Rhinovirus; 80 milligrams/10 milliliters acetonitrile with or without TWEEN 80, 100-microliter drop of undiluted virus on SCOTT towel): approximately 9 drops | lowest ten-fold dilution at which stickers changed color (Rhinovirus; virus diluted serially in saline, 50-microliter aliquots, 3 minutes): 10^−6 | de-colorization by BV negative/pH positive vaginal fluid [8]: only faintly de-colorized | de-colorization by BV positive/pH positive vaginal fluid [8]: next sharpest de-colorization | de-colorization by normal vaginal fluid [8]: sharpest de-colorization | response of Reichardt's dye to dilute bleach (Bleach indicator test): de-colorizing | effect of 1 N NaOH on acid-decolorized dye spots [9, 12]: rapid re-colorization | effect of acetic acid and Aldrich buffer pH 2.0 on dried dye spots [9, 12]: rapid de-colorization | effect of 1 N NaOH on dye decolorized by aged chicken juice ([9]; indicator spray 160 mg in 10 ml acetonitrile, hot plate surface): re-colorization of that small spot | de-colorization time (E. coli [10]): < 1 min | time to decolorize to a white spot (E. coli [11]): less than 10 seconds
